# Experimental data as given in patent US8759500B2, “Crystalline forms of a macrolide, and uses therefor” (Cempra Pharmaceuticals, Inc., priority 2010, dated 2014).
# Legend:
# [1] = Pharmacokinetic comparison of forms by dosing vehicle
# [2] = Oral pharmacokinetics in Balb/c mice, single dose 20 or 100 mg/kg; settings: for AUCextrap: mean plasma; for AUC(0-inf) / AUC(0-t) / Cmax / Tmax / concentration at 0 h / concentration at 0.25 h / concentration at 0.5 h / concentration at 1 h / concentration at 2 h / concentration at 4 h / concentration at 6 h: Balb/c, mouse, plasma, po
# Method: The doses were prepared as 2.0 mg/mL or 10.0 mg/mL in a vehicle of 0.5% (w/v) carboxymethyl cellulose in water and a dose volume of 10 mL/kg b.w. Blood samples were collected at various time points during the next 6 h post dose.
structure (smiles),measurement,setting,value
"CC[C@H]1OC(=O)[C@@](C)(F)C(=O)[C@H](C)[C@@H](O[C@@H]2O[C@H](C)C[C@H](N(C)C)[C@H]2O)[C@](C)(OC)C[C@@H](C)C(=O)[C@H](C)[C@H]2N(CCCCn3cc(-c4cccc(N)c4)nn3)C(=O)O[C@]12C [Form II, solithromycin]","difference in measured pharmacokinetic parameters, including Cmax, Tmax, and AUC, among Form I and Form II",[1]; dosed in a vehicle in which the compound is present as a solid,no statistical difference
same,"difference in measured pharmacokinetic parameters, including Cmax, Tmax, and AUC, among Form I and Form II",[1]; dosed in a vehicle in which the compound is well solubilized,no observed difference
same,AUCextrap,"[2]; Female Balb/c mouse, 20 mg/kg oral, listed as CEM-101 Form II, 20 mg/kg",12%
same,AUCextrap,"[2]; Male Balb/c mouse, 20 mg/kg oral, listed as CEM-101 Form II, 20 mg/kg",42%
same,AUCextrap,"[2]; Male Balb/c mouse, 100 mg/kg oral",33%
same,AUC(0-inf),"[2]; female, 20 mg/kg",36000 ng·h/mL
same,AUC(0-t),"[2]; female, 20 mg/kg",31600 ng·h/mL
same,Cmax,"[2]; female, 20 mg/kg",8800 ng/mL
same,Tmax,"[2]; female, 20 mg/kg",0.5 h
same,concentration at 0 h,"[2]; female, 20 mg/kg",0 ng/mL
same,concentration at 0.25 h,"[2]; female, 20 mg/kg",6200 ± 1600 ng/mL
same,concentration at 0.5 h,"[2]; female, 20 mg/kg",8800 ± 800 ng/mL
same,concentration at 1 h,"[2]; female, 20 mg/kg",7300 ± 900 ng/mL
same,concentration at 2 h,"[2]; female, 20 mg/kg",6100 ± 1000 ng/mL
same,concentration at 4 h,"[2]; female, 20 mg/kg",5500 ± 1700 ng/mL
same,concentration at 6 h,"[2]; female, 20 mg/kg",1300 ± 500 ng/mL
same,AUC(0-t),"[2]; female, 100 mg/kg",55000 ng·h/mL
same,Cmax,"[2]; female, 100 mg/kg",10500 ng/mL
same,Tmax,"[2]; female, 100 mg/kg",4 h
same,concentration at 0 h,"[2]; female, 100 mg/kg",0 ng/mL
same,concentration at 0.25 h,"[2]; female, 100 mg/kg",7300 ± 900 ng/mL
same,concentration at 0.5 h,"[2]; female, 100 mg/kg",10500 ± 1400 ng/mL
same,concentration at 1 h,"[2]; female, 100 mg/kg",9600 ± 2200 ng/mL
same,concentration at 2 h,"[2]; female, 100 mg/kg",9500 ± 2200 ng/mL
same,concentration at 4 h,"[2]; female, 100 mg/kg",10200 ± 1000 ng/mL
same,concentration at 6 h,"[2]; female, 100 mg/kg",7800 ± 1100 ng/mL
same,AUC(0-inf),"[2]; male, 20 mg/kg",49000 ng·h/mL
same,AUC(0-t),"[2]; male, 20 mg/kg",29000 ng·h/mL
same,Cmax,"[2]; male, 20 mg/kg",6730 ng/mL
same,Tmax,"[2]; male, 20 mg/kg",0.5 h
same,concentration at 0 h,"[2]; male, 20 mg/kg",0 ng/mL
same,concentration at 0.25 h,"[2]; male, 20 mg/kg",4100 ± 800 ng/mL
same,concentration at 0.5 h,"[2]; male, 20 mg/kg",6700 ± 600 ng/mL
same,concentration at 1 h,"[2]; male, 20 mg/kg",5900 ± 800 ng/mL
same,concentration at 2 h,"[2]; male, 20 mg/kg",5600 ± 400 ng/mL
same,concentration at 4 h,"[2]; male, 20 mg/kg",4900 ± 1100 ng/mL
same,concentration at 6 h,"[2]; male, 20 mg/kg",2900 ± 600 ng/mL
same,AUC(0-inf),"[2]; male, 100 mg/kg",99000 ng·h/mL
same,AUC(0-t),"[2]; male, 100 mg/kg",66000 ng·h/mL
same,Cmax,"[2]; male, 100 mg/kg",10600 ng/mL
same,Tmax,"[2]; male, 100 mg/kg",4 h
same,concentration at 0 h,"[2]; male, 100 mg/kg",0 ng/mL
same,concentration at 0.25 h,"[2]; male, 100 mg/kg",6800 ± 700 ng/mL
same,concentration at 0.5 h,"[2]; male, 100 mg/kg",6900 ± 1100 ng/mL
same,concentration at 1 h,"[2]; male, 100 mg/kg",8700 ± 2700 ng/mL
same,concentration at 2 h,"[2]; male, 100 mg/kg",9300 ± 1200 ng/mL
same,concentration at 4 h,"[2]; male, 100 mg/kg",10600 ± 1400 ng/mL
same,concentration at 6 h,"[2]; male, 100 mg/kg",7200 ± 800 ng/mL
